Assay results as given in patent publication US20110178118A1, “PALONOSETRON FOR THE TREATMENT OF CHEMOTHERAPY INDUCED EMESES” (priority 2002, published 2011).
Read-outs that look alike come from different tables or passages of the source. Marks after values point to notes of the source that are not given here.

Experiments:
cisplatin-induced emesis [1] = assay: Anti-emetic effect, oral antiemetic one hour before cisplatin; type: in vivo, dogs; conditions: for Emetic Episodes (mean ± SD): observed five hours
Procedure: The antiemetic effects of intravenously and orally administered palonosetron were assessed in male and female dogs (sexes combined). Antineoplastic agents employed in these experiments included cisplatin (3 mg/kg)), dacarbazine (30 mg/kg), mechlorethamine (0.4 mg/kg) and actinomycin D (0.15 mg/kg). […] Mean numbers of episodes were computed and the statistical significance of differences between treatment groups were determined with Dunnett's t test. Solutions of palonosetron and comparator drugs (ondansetron and granisetron) were prepared in distilled water. Vehicle control groups received distilled water. The observation of potency differential was further seen during an experiment in which oral dose-response relationships of palonosetron and ondansetron were compared in cisplatin-treated dogs. Palonosetron, ondansetron or vehicle control were administered by the oral route one hour prior to the administration of cisplatin. Each animal was observed continuously for five hours following cisplatin administration for the number of emetic episodes.

[2] = test system: Dacarbazine-Induced Emesis; assay: Antagonism of dacarbazine-induced emesis; type: in vivo, dogs; conditions: 2 hours prior to dacarbazine 30.0 mg/kg IV, observed 5 hours
cisplatin-induced emesis [3] = assay: Duration of action in cisplatin-treated dogs; type: in vivo
Procedure: Mean numbers of episodes were computed and the statistical significance of differences between treatment groups were determined with Dunnett's t test. Solutions of palonosetron and comparator drugs (ondansetron and granisetron) were prepared in distilled water. Vehicle control groups received distilled water.

[4] = test system: Mechlorethamine-Induced Emesis; type: in vivo, dogs; conditions: 2 hours prior to mechlorethamine 0.4 mg/kg IV, observed 5 hours
[5] = test system: Actinomycin D-Induced Emesis; assay: Antagonism of actinomycin D-induced emesis; type: in vivo, dogs; conditions: 2 hours prior to actinomycin D 0.15 mg/kg IV, observed 5 hours
cisplatin-induced emesis [6] = assay: Intravenous palonosetron vs ondansetron in cisplatin-treated dogs; type: in vivo; conditions: 1.0 mg/kg intravenous; five-hour period following cisplatin 3.0 mg/kg
Procedure: The antiemetic effects of intravenously and orally administered palonosetron were assessed in male and female dogs (sexes combined). Antineoplastic agents employed in these experiments included cisplatin (3 mg/kg)), dacarbazine (30 mg/kg), mechlorethamine (0.4 mg/kg) and actinomycin D (0.15 mg/kg). […] Mean numbers of episodes were computed and the statistical significance of differences between treatment groups were determined with Dunnett's t test. Solutions of palonosetron and comparator drugs (ondansetron and granisetron) were prepared in distilled water. Vehicle control groups received distilled water. The therapeutic effects of intravenously and orally administered palonosetron were compared to those of ondansetron and vehicle in cisplatin-treated dogs.

cisplatin-induced emesis [7] = assay: Reversal of cisplatin-induced emesis, intravenous antiemetic one hour after cisplatin; type: in vivo, dogs; conditions: for Emetic Episodes (mean ± SD): observed five hours
Procedure: The antiemetic effects of intravenously and orally administered palonosetron were assessed in male and female dogs (sexes combined). Antineoplastic agents employed in these experiments included cisplatin (3 mg/kg)), dacarbazine (30 mg/kg), mechlorethamine (0.4 mg/kg) and actinomycin D (0.15 mg/kg). […] Mean numbers of episodes were computed and the statistical significance of differences between treatment groups were determined with Dunnett's t test. Solutions of palonosetron and comparator drugs (ondansetron and granisetron) were prepared in distilled water. Vehicle control groups received distilled water. In a different study, palonosetron and ondansetron were assessed for their relative abilities to reverse cisplatin-induced emesis. In these experiments dogs received intravenous injections of palonosetron, ondansetron, or vehicle one hour after the intravenous administration of 3.0 mg/kg cisplatin. Each animal was observed continuously for five hours following cisplatin administration for the number of emetic episodes.

[8] = intravenous antiemetic 0.01 mg/kg
[9] = intravenous antiemetic 0.03 mg/kg
[10] = intravenous antiemetic 0.1 mg/kg
[11] = intravenous antiemetic 0.3 mg/kg

Cc1nccn1CC1CCc2c(c3ccccc3n2C)C1=O (centres unmarked) [Ondansetron, reference compound]
Emetic Episodes (mean ± SD) (cisplatin-induced emesis [1]; oral dose 1.0 μg/kg one hour before cisplatin): 15.50 ± 3.93
Emetic Episodes (mean ± SD) (cisplatin-induced emesis [1]; oral dose 3.0 μg/kg one hour before cisplatin): 14.83 ± 6.49
Emetic Episodes (mean ± SD) (cisplatin-induced emesis [1]; oral dose 10.0 μg/kg one hour before cisplatin): 12.66 ± 3.01
Emetic Episodes (mean ± SD) (cisplatin-induced emesis [1]; oral dose 30.0 μg/kg one hour before cisplatin): 18.33 ± 8.43
Emetic Episodes (mean ± SD) (cisplatin-induced emesis [1]; oral dose 100.0 μg/kg one hour before cisplatin): 10.50 ± 3.14
Emetic Episodes (mean ± SD) (cisplatin-induced emesis [1]; oral dose 300.0 μg/kg one hour before cisplatin): 3.16 ± 1.32^a
Emetic Episodes (mean ± SD) (cisplatin-induced emesis [1]; oral dose 1000.0 μg/kg one hour before cisplatin): 2.00 ± 2.09^a
minimally effective dose (significant reduction in episodes) (cisplatin-induced emesis [1]; oral, one hour before cisplatin): 0.3 mg/kg
Emetic Episodes (mean ± SD) [2, 8]: 11.50 ± 5.51 ^
Emetic Episodes (mean ± SD) [2, 9]: 8.17 ± 2.79^
Emetic Episodes (mean ± SD) [2, 10]: 4.83 ± 2.48^d
Emetic Episodes (mean ± SD) [2, 11]: 1.33 ± 0.82^d
Emetic Episodes (mean ± SD) ([2]; oral antiemetic 0.03 mg/kg): 10.83 ± 2.72 ^
Emetic Episodes (mean ± SD) ([2]; oral antiemetic 0.1 mg/kg): 6.17 ± 5.35^d
Emetic Episodes (mean ± SD) ([2]; oral antiemetic 0.3 mg/kg): 3.00 ± 3.03^d
Emetic Episodes (mean ± SD) ([2]; oral antiemetic 1 mg/kg): 0.17 ± 0.41^d
pretreatment time before cisplatin with reduced emetic episodes (cisplatin-induced emesis [3]; 0.15 mg/kg IV): only after a one-hour pretreatment period
Emetic Episodes (mean ± SD) (cisplatin-induced emesis [3]; 0.15 mg/kg IV, 1 hr pre-cisplatin 3.0 mg/kg IV): 7.83 ± 4.12^b
Emetic Episodes (mean ± SD) (cisplatin-induced emesis [3]; 0.15 mg/kg IV, 2 hr pre-cisplatin 3.0 mg/kg IV): 10.67 ± 5.28
Emetic Episodes (mean ± SD) (cisplatin-induced emesis [3]; 0.15 mg/kg IV, 4 hr pre-cisplatin 3.0 mg/kg IV): 12.67 ± 2.07
Emetic Episodes (mean ± SD) (cisplatin-induced emesis [3]; 0.15 mg/kg IV, 6 hr pre-cisplatin 3.0 mg/kg IV): 14.17 ± 6.79
Emetic Episodes (mean ± SD) (cisplatin-induced emesis [3]; 0.15 mg/kg IV, 8 hr pre-cisplatin 3.0 mg/kg IV): 15.50 ± 7.29
Emetic Episodes (mean ± SD) (cisplatin-induced emesis [3]; 0.15 mg/kg IV, 10 hr pre-cisplatin 3.0 mg/kg IV): 13.83 ± 4.58
Emetic Episodes (mean ± SD) (cisplatin-induced emesis [3]; 0.15 mg/kg IV, 12 hr pre-cisplatin 3.0 mg/kg IV): 22.00 ± 8.32
protective effects, pretreatment time prior to cisplatin (cisplatin-induced emesis [3]; earlier experiment, 0.3 mg/kg, IV): as long as seven hours
Emetic Episodes (mean ± SD) [4, 8]: 5.83 ± 4.31
Emetic Episodes (mean ± SD) [4, 9]: 3.50 ± 2.07^c
Emetic Episodes (mean ± SD) [4, 10]: 5.33 ± 4.68
Emetic Episodes (mean ± SD) [4, 11]: 4.67 ± 1.63^c
Emetic Episodes (mean ± SD) ([4]; oral antiemetic 0.03 mg/kg): 5.67 ± 2.50
Emetic Episodes (mean ± SD) ([4]; oral antiemetic 0.1 mg/kg): 8.50 ± 3.15
Emetic Episodes (mean ± SD) ([4]; oral antiemetic 0.3 mg/kg): 2.83 ± 3.71^d
Emetic Episodes (mean ± SD) ([4]; oral antiemetic 1 mg/kg): 0.00 ± 0.00^d
Emetic Episodes (mean ± SD) [5, 8]: 7.67 ± 2.25^d
Emetic Episodes (mean ± SD) [5, 9]: 14.67 ± 4.68 ^
Emetic Episodes (mean ± SD) [5, 10]: 12.67 ± 3.45 ^
Emetic Episodes (mean ± SD) [5, 11]: 5.83 ± 4.45^d
Emetic Episodes (mean ± SD) ([5]; oral antiemetic 0.03 mg/kg): 9.83 ± 7.52^
Emetic Episodes (mean ± SD) ([5]; oral antiemetic 0.1 mg/kg): 10.33 ± 4.84 ^
Emetic Episodes (mean ± SD) ([5]; oral antiemetic 0.3 mg/kg, one dog dropped): 4.20 ± 1.92^d
Emetic Episodes (mean ± SD) ([5]; oral antiemetic 1 mg/kg): 1.50 ± 1.38^d
mean number of emetic episodes (cisplatin-induced emesis [6]): 6.83
Emetic Episodes (mean ± SD) (cisplatin-induced emesis [7]; intravenous dose 1.0 μg/kg one hour after cisplatin 3.0 mg/kg IV): 16.16 ± 5.14 ^
Emetic Episodes (mean ± SD) (cisplatin-induced emesis [7]; intravenous dose 3.0 μg/kg one hour after cisplatin 3.0 mg/kg IV): 13.33 ± 4.17 ^
Emetic Episodes (mean ± SD) (cisplatin-induced emesis [7]; intravenous dose 10.0 μg/kg one hour after cisplatin 3.0 mg/kg IV): 13.33 ± 3.01 ^
Emetic Episodes (mean ± SD) (cisplatin-induced emesis [7]; intravenous dose 30.0 μg/kg one hour after cisplatin 3.0 mg/kg IV): 8.33 ± 3.20^
Emetic Episodes (mean ± SD) (cisplatin-induced emesis [7]; intravenous dose 100.0 μg/kg one hour after cisplatin 3.0 mg/kg IV): 4.83 ± 2.40^b
Emetic Episodes (mean ± SD) (cisplatin-induced emesis [7]; intravenous dose 300.0 μg/kg one hour after cisplatin 3.0 mg/kg IV): 1.00 ± 2.00^b
Emetic Episodes (mean ± SD) (cisplatin-induced emesis [7]; intravenous dose 1000.0 μg/kg one hour after cisplatin 3.0 mg/kg IV): 1.16 ± 0.40^b
statistically minimally effective dose level (cisplatin-induced emesis [7]; intravenous, one hour after cisplatin): 0.1 mg/kg
